In brackets after ≈: the same amount, converted by molar mass. Like-named read-outs stand apart in the source and are kept apart here. Ends that are not written are not given here. Peptide text beside a SMILES is read from it.
Assays:
[1] = system: Escherichia coli: ATCC 9723H; assay type: cell-based; settings: ATCC 9723
Outline: (§1)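 MIC and MBC were run by broth microdilution adapted from Hancock cationic-AMP and CLSI methods, in Mueller Hinton broth (+5% lysed horse blood for S. pyogenes) at about 5×10^5 CFU/mL. Peptides came from two-fold 10× stocks (2560–5 μg/mL) and were incubated 16-24 h at 37 °C. For MBC, the MIC well and two more-concentrated wells were plated on MHA for 24 h at 37 °C.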

[2] = system: Mycobacterium smegmatis (MC^2155); assay type: cell-based; settings: Mycobacterium (MC^2155)
Outline: as §1

[3] = system: Staphylococcus aureus: ATCC 6538P; assay type: cell-based; settings: ATCC 6538
Outline: as §1

[4] = system: Streptococcus pyogenes: unknown strain, hospital isolate; assay type: cell-based; settings: unknown strain, hospital isolate
Outline: as §1

[5] = system: Escherichia coli—ATCC 25922 “wild type”; assay type: cell-based
Outline: (§2)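 MIC/MBC of cationic antimicrobial peptides by a broth method adapted for cationic peptides, against E. coli ATCC 25922 and clinical MDR isolates (ESBL, KPC, NDM). Some peptides made as TFA or acetate salts. Each run on a different day with multiple replicates.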

[6] = system: Escherichia coli—Carbapenemase-producing organism; Klebsiella pneumoniae carbapenemase; assay type: cell-based
Outline: as §2

[7] = system: Escherichia coli—Carbapenemase-producing organism; New-Dehli Metallobetalactamase; assay type: cell-based
Outline: as §2

[8] = system: Escherichia coli—Extended spectrum beta-lactamase; assay type: cell-based
Outline: as §2

[9] = system: Methicillin resistant Staphylococcus aureus; assay type: cell-based
Protocol: (§3) Independent experiments were conducted with different strains of Staphylococcus aureus—ATCC 29213 “wild type”; and Staphylococcus aureus—Methicillin resistant Staphylococcus aureus.
(§4) The ATCC (American Type Culture Collection) strains received from Cedarlane. Multi drug resistant (MDR) strains, as clinical isolates, were received from the laboratory of Dr. Linda Hoang.
(§5) Putative antimicrobial peptides were synthesized by GeneScript. A-list antimicrobial peptides re-synthesized by GeneScript. P2_CCH, P5_CCH, and P5_CCH_A19K were each synthesized under two conditions: standard synthesis using TFA, and the other with TFA-removal using acetate as a counter-ion. A MIC method, adapted for use with cationic antimicrobial peptides, was used to evaluate MIC antimicrobial activity (Hancock 1999).
(§6) The following data are presented to show the activity (MIC/MBC in μg/mL) of certain antimicrobial peptides described herein relative to a modified/synthetic version having a specified substitution. While data presented in tables above may be presented again, or may be represented in data provided in the tables below, such duplication is believed to assist the reader in readily noting comparisons. Different Run Numbers noted in the following tables denotes experiments conducted on different days, with each run reflecting multiple n values.

[10] = system: Staphylococcus aureus—ATCC 29213 “wild type”; assay type: cell-based
Protocol: as §3, §4, §5, §6

Salmonella Enteritidis = assay type: cell-based
Description: as §5, §6

[11] = system: Salmonella Heidelberg (MDR); assay type: cell-based
Description: as §4, §5, §6

Hemolysis test (HC50) = settings: red blood cells
Protocol: Peptides were tested for activity using as minimum inhibitory concentration (MIC), and minimum bactericidal concentration (MBC) determinations. For certain peptides, a hemolysis test was also conducted to determine HC50 (μg/mL) as an indicator of hemolytic activity based on the concentration of an antimicrobial compound that kills 50% red blood cells.
In Table 27, the designations P2, P2M, P3, P3M, P4, P4M, P5, P5M, P6, and P6M refer to peptides P2_CCH, P2_CCH_T15K_P7R, P3_CCH, P3_CCH_D8K_Q23C, P4_CCH, P4_CCH_P31K, P5_CCH, P5_CCH_A19K, P6_CCH, and P6_CCH_S12K, respectively, as defined above.

Molecule	MBC [1]	MIC [1]	MIC [2]	MBC [3]	MIC [3]	MBC [4]	MIC [4]	Minimum Inhibitory Concentration (MIC) [5]	Minimum Inhibitory Concentration (MIC) [6]	Minimum Inhibitory Concentration (MIC) [7]	Minimum Inhibitory Concentration (MIC) [8]	Minimum Inhibitory Concentration (MIC) ([9]; Methicillin resistant)	Minimum Inhibitory Concentration (MIC) ([10]; ATCC 29213)	Minimum Inhibitory Concentration (MIC) (Salmonella Enteritidis)	Minimum Inhibitory Concentration (MIC) [11]	also measured
CC[C@H](C)[C@H](NC(=O)[C@@H](NC(=O)[C@@H]1CCCN1C(=O)[C@H](Cc1ccccc1)NC(=O)[C@@H](N)Cc1ccccc1)[C@@H](C)CC)C(=O)N[C@@H](C)C(=O)N[C@@H](CCCNC(=N)N)C(=O)N[C@@H](CC(C)C)C(=O)N[C@@H](C)C(=O)N[C@@H](C)C(=O)N[C@@H](CCCCN)C(=O)N[C@H](C(=O)N[C@H](C(=O)N1CCC[C@H]1C(=O)N[C@@H](CO)C(=O)N[C@@H](CC(C)C)C(=O)N[C@H](C(=O)N[C@@H](CS)C(=O)N[C@@H](C)C(=O)N[C@H](C(=O)N[C@H](C(=O)N[C@@H](CCCCN)C(=O)N[C@@H](CCCCN)C(=O)N[C@@H](CS)C(=O)O)[C@@H](C)O)C(C)C)C(C)C)[C@@H](C)CC)C(C)C [Peptide P5_CCH] (H-FFPIIARLAAKVIPSLVCAVTKKC-OH; N-terminus and C-terminus assumed)	32 µg/mL (≈ 12.4 µM)	16 µg/mL (≈ 6.18 µM)	2 µg/mL (≈ 0.772 µM)	16 µg/mL (≈ 6.18 µM)	4 µg/mL (≈ 1.54 µM)	128 µg/mL (≈ 49.4 µM)	128 µg/mL (≈ 49.4 µM)	4 to 16 µg/mL	4 to 16 µg/mL	4 to 32 µg/mL	8 to 32 µg/mL	2 to 8 µg/mL	4 to 8 µg/mL	64 to 128 µg/mL	32 to 128 µg/mL	MBC [2]: >256 µg/mL
CC[C@H](C)[C@H](NC(=O)[C@@H](NC(=O)[C@@H]1CCCN1C(=O)[C@H](Cc1ccccc1)NC(=O)[C@@H](N)Cc1ccccc1)[C@@H](C)CC)C(=O)N[C@@H](C)C(=O)N[C@@H](CCCNC(=N)N)C(=O)N[C@@H](CC(C)C)C(=O)N[C@@H](C)C(=O)N[C@@H](C)C(=O)N[C@@H](CCCCN)C(=O)N[C@H](C(=O)N[C@H](C(=O)N1CCC[C@H]1C(=O)N[C@@H](CO)C(=O)N[C@@H](CC(C)C)C(=O)N[C@H](C(=O)N[C@@H](CS)C(=O)N[C@@H](CCCCN)C(=O)N[C@H](C(=O)N[C@H](C(=O)N[C@@H](CCCCN)C(=O)N[C@@H](CCCCN)C(=O)N[C@@H](CS)C(=O)O)[C@@H](C)O)C(C)C)C(C)C)[C@@H](C)CC)C(C)C [Peptide P5_CCH_A19K] (H-FFPIIARLAAKVIPSLVCKVTKKC-OH; N-terminus and C-terminus assumed)								4 to 16 µg/mL	4 to 16 µg/mL	4 to 16 µg/mL	4 to 16 µg/mL	2 to 8 µg/mL	2 to 8 µg/mL	16 to 64 µg/mL	16 to 64 µg/mL	HC50 (Hemolysis test (HC50); RPMI): 64 to 128 µg/mL
CC[C@H](C)[C@H](NC(=O)[C@H](CO)NC(=O)[C@H](CCCCN)NC(=O)CNC(=O)[C@@H](NC(=O)[C@@H](NC(=O)[C@H](CCCCN)NC(=O)[C@@H](NC(=O)[C@@H](NC(=O)[C@H](CCC(=O)O)NC(=O)[C@H](Cc1c[nH]c2ccccc12)NC(=O)[C@H](CC(C)C)NC(=O)CN)[C@@H](C)O)[C@@H](C)CC)[C@@H](C)O)[C@@H](C)O)C(=O)N[C@@H](C)C(=O)N[C@@H](CC(C)C)C(=O)N[C@@H](CC(N)=O)C(=O)N[C@@H](CC(C)C)C(=O)N[C@@H](CC(C)C)C(=O)N[C@@H](CC(=O)O)C(=O)N[C@@H](CCCCN)C(=O)N[C@H](C(=O)N[C@@H](CCCCN)C(=O)N[C@@H](CS)C(=O)N[C@@H](CCCCN)C(=O)N[C@H](C(=O)N[C@@H](C)C(=O)NCC(=O)NCC(=O)N[C@@H](CS)C(=O)N1CCC[C@H]1C(=O)N1CCC[C@H]1C(=O)O)[C@@H](C)CC)[C@@H](C)CC [Peptide P6_CCH] (H-GLWETIKTTGKSIALNLLDKIKCKIAGGCPP-OH; N-terminus and C-terminus assumed)	16 to 64 µg/mL	16 to 64 µg/mL	2 µg/mL (≈ 0.612 µM)	256 µg/mL (≈ 78.3 µM)	128 to 256 µg/mL	128 µg/mL (≈ 39.1 µM)	128 µg/mL (≈ 39.1 µM)	8 to 16 µg/mL	8 µg/mL	16 to 32 µg/mL	8 to 16 µg/mL			64 to 128 µg/mL	64 µg/mL	Minimum Inhibitory Concentration (MIC) ([9]; MRSA, Gram positive): 128+ ug/mL; MBC ([9]; Methicillin resistant): 256 µg/mL (≈ 78.3 µM); Minimum Inhibitory Concentration (MIC) ([10]; S. aureus ATCC 29213, Gram positive): 128+ ug/mL
FFPRVLRLANKFLPKIYCALPKSVGN [P2_CCH_T15K_P7R]								4 to 8 µg/mL	8 µg/mL	4 to 8 µg/mL	2 to 8 µg/mL	32 to 64 µg/mL	64 to 128 µg/mL	32 to 64 µg/mL	16 to 64 µg/mL	MBC [6]: 8 µg/mL; MIC [6]: 8 µg/mL; HC50 (Hemolysis test (HC50); HC50 (hemolysis test)): 64 µg/mL

From patent US12280090B2, “Antimicrobial peptides” (priority 2018, dated 2025)
